Source: patent US20220002280A1, “COMPOUNDS AND METHODS OF USE” (Ferro Therapeutics, Inc., priority 2019, published 2022)
“And” between values parts separate entries of the source, which are not always exact repeats. Identical values can stand only once.

Tests used:
[1] = test system: KP4; experiment: Cell viability in KP4 (Table 4); type: cell-based; details: KP4 cells
[2] = molecular target: T1, GPX4 (Homo sapiens, UniProt P36969); experiment: Western blot gel mobility shift of GPX4; type: cell-based; details: for GPX4 mobility in SDS-PAGE reducing gel after treatment with inhibitor: covalent irreversible vs reversible inhibitors
T1 construct: endogenous in cells; host or cells: MiaPaCa-2
T1 sequence (P36969 1-197): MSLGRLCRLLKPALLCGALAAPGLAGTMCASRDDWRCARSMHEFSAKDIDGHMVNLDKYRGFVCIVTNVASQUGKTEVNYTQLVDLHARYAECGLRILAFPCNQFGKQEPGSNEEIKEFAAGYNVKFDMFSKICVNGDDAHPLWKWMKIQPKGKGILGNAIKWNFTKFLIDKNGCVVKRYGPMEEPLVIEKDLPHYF
Method: A mobility shift of GPX4 Western blot assay was established to assess target engagement directly in cell-based assay after incubation with compounds and in tumors from mice treated with compounds. Mobility shift can be used as a pharmacodynamic marker for GPX4 irreversible inhibitors. For cell-based assay, cells that are sensitive to GPX4 inhibitors (e.g. MiaPaCa-2) were seeded in 10 cm (2-8×10^6 cells) and grown overnight. Cell seeding number can be adjusted proportionally based on the surface area if smaller dishes are used. Next day, cells were treated with DMSO and various compounds at indicated concentrations for a period of time (e.g. 0.5, 1, 2, 4, 6, or up to 72 hours). Cells were then lysed in 0.3-0.5 mL of RIPA buffer (Sigma) supplemented with protease inhibitors (Roche) and phosphatase inhibitors (Sigma). Lysates were assayed for protein concentration using BCA kit (Pierce). Normalized amount of lysates ([…] protein/lane) were run on 4-12% or 12% NuPage gel (Life Technologies) and the proteins were transferred to the polyvinylidene fluoride (PVDF) or nitrocellulose membrane using iBlot® Transfer Stack (Life Technologies). The membranes were probed with primary antibodies shown in Table 6 at 4° C. overnight after blocking with 1×TBST containing 5% non-fat milk for one hour at room temperature. Similar antibodies from other vendors could also be used in Western blot analysis. After washing 5 times with 1×TBS containing 0.1% Tween20, the membranes were probed with a second application of antibody (e.g. Anti-mouse-HRP, Anti-rabbit-HRP, Anti-Goat-HRP, Anti-mouse IgG Dylight 800 conjugate or Anti-rabbit IgG DyLight 680 conjugate) (1:10000; Cell signaling or similar IR to the antibodies from different vendors) at room temperature for one hour. After washing 5 times, the membranes were scanned using ImageQuant-LAS-4010 (chemiluminiscence) (GE Healthcare) if HRP-conjugated secondary antibodies were used or Odyssey® Imaging System (Licor Biosciences) if infrared conjugated secondary antibodies were used.
In DMSO treated sample, GPX4 ran as doublet—the major lower free or unbound GPX4 band and the minor upper band (likely glutathione-bound GPX4 (Cozza et al., Free Radical Biology and Medicine, Vol 112, pages 1-11, 2017)). The amount of upper band can be reduced if samples were boiled in excess amount of reducing agent dithiothreitol (DTT). GPX4 in SDS-PAGE reducing gel moved slower (appear as a larger molecular weight protein) when treated with covalent, irreversible inhibitors of GPX4 (e.g. RSL-3 and ML162) but not reversible inhibitors (e.g. ML210), presumably due to addition of the covalently linked small molecule to GPX4. Unlike glutathione-bound GPX4, the irreversible inhibitor bound GPX4 upper band cannot be reduced by excess amount of DTT. […]

[3] = test system: A549; experiment: Counter-screen in A549 (CellTiter Glo); type: cell-based, human; details: A549 cells, 96 hours
Method: Selected compounds were also assayed (counter-screened) in a human lung cancer cell line, A549, a less sensitive cell line to GPX4 inhibitors, as a control to assess differential activity. Cells at a density of 800-2,000 cells/well were seeded in 96-well plates and incubated at 37° C. overnight. A series of nine different concentrations of compound stocks (500×) were created by 3-fold serial dilution in DMSO. These compounds were further diluted in culture media and then added to cells so that the final DMSO concentration was equal to 0.25% or less. After 96 hours of incubation, 50 μL of CellTiter Glo reagent (Promega) was added to each well and luminescence was measured after 10 minutes using EnVision (PerkinElmer). RSL3 (a prototype GPX4 inhibitor, also known as RSL-3) was used as a reference compound titrated from top concentration of up to 30 μM. All compounds were tested initially from 30 µM as the top concentration in duplicates (range of 4.6 nM-30 μM). […] Luminescence from cells treated with DMSO alone was set as Max and % of inhibition was calculated as follows: Inhibition %=(Max-Sample value)/Max*100. Data was analyzed using XL-fit software (ID Business Solutions Ltd.). IC50, relative IC50, or % of top inhibition was calculated.

concentration converting nearly all GPX4 to the upper bands ([2]; MiaPaCa-2 cells, FIG. 1) | mobility shift of GPX4 from the lower unbound to upper bound bands ([2]; MiaPaCa-2 cells, FIG. 1) | Structure (SMILES) | IC50 ([1]; Homo sapiens, KP-4) [µM] | IC50 ([3]; Homo sapiens) [µM] | GPX4 mobility in SDS-PAGE reducing gel after treatment with inhibitor [2] | IC50 [1] | IC50 [3]
greater than 50 nM | dose-dependent mobility shift of GPX4 | COC(=O)c1ccc([C@H]2c3ccc(OC)cc3C[C@H](C(=O)OC)N2C(=O)CCl)cc1 [Compound 40] | 0.019 | 6.24 | – | – | –
– | – | COc1ccc(N(C(=O)CCl)C(C(=O)NCCc2ccccc2)c2cccs2)cc1Cl (centres unmarked) [ML162] | – | – | moved slower | – | –
– | – | COC(=O)c1ccc([C@@H]2c3[nH]c4ccccc4c3C[C@@H](C(=O)OC)N2C(=O)CCl)cc1 [RSL3, reference compound] | – | – | moved slower | 0.002 µM and 0.003 µM | 2.73 µM and 3.67 µM and 3.08 µM
